In the supplement of paper PMC10307832:

Key:
Experiment in all cases: relative viability (nuclei count vs DMSO), 5 days (fraction); higher = more cells survive
[1] = compound: O=C(O)c1ccc2c(c1)nc(Nc1cccc(Cl)c1)c1ccncc12 [Silmitasertib] + CC(=O)Nc1cccc(-n2c(=O)n(C3CC3)c(=O)c3c(Nc4ccc(I)cc4F)n(C)c(=O)c(C)c32)c1 [Trametinib] (partner 0.02 µM)
Procedure, shortened: (§1)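 Relative viability is defined as nuclei in treated wells over nuclei in vehicle wells. Duplicate plates were run and medians reported. Lung cancer cell lines in 1536-well plates were dosed by pin tool one day after seeding, with one drug or with a fixed anchor-drug dose plus five library-drug doses (not always all listed) in √10 steps, and nuclei were counted after 5 days.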

[2] = compound: O=C(O)c1ccc2c(c1)nc(Nc1cccc(Cl)c1)c1ccncc12 [Silmitasertib] + CCNC(=O)c1noc(-c2cc(C(C)C)c(O)cc2O)c1-c1ccc(CN2CCOCC2)cc1 [Luminespib] (partner 0.01 µM)
Procedure, shortened: as §1

Silmitasertib + OSI-027 = compound: O=C(O)c1ccc2c(c1)nc(Nc1cccc(Cl)c1)c1ccncc12 [Silmitasertib] + COc1cccc2cc(-c3nc([C@H]4CC[C@H](C(=O)O)CC4)n4ncnc(N)c34)[nH]c12 [OSI-027] (partner 0.5 µM)
Procedure, shortened: as §1

Silmitasertib + AZD7762 = compound: O=C(O)c1ccc2c(c1)nc(Nc1cccc(Cl)c1)c1ccncc12 [Silmitasertib] + NC(=O)Nc1cc(-c2cccc(F)c2)sc1C(=O)N[C@H]1CCCNC1 [AZD7762] (partner 0.2 µM)
Procedure, shortened: as §1

[3] = compound: O=C(O)c1ccc2c(c1)nc(Nc1cccc(Cl)c1)c1ccncc12 [Silmitasertib] + O=C(CCCCCCC(=O)Nc1ccccc1)NO [Vorinostat] (partner 1 µM)
Procedure, shortened: as §1

Cell Line	relative viability ([1]; first compound 0.04 µM)	relative viability ([1]; first compound 0.4 µM)	relative viability ([1]; first compound 1.265 µM)	relative viability ([1]; first compound 4 µM)	relative viability ([2]; first compound 0.04 µM)	relative viability ([2]; first compound 0.4 µM)	relative viability ([2]; first compound 1.265 µM)	relative viability ([2]; first compound 4 µM)	relative viability (Silmitasertib + OSI-027; first compound 0.04 µM)	relative viability (Silmitasertib + OSI-027; first compound 0.4 µM)	relative viability (Silmitasertib + OSI-027; first compound 1.265 µM)	relative viability (Silmitasertib + OSI-027; first compound 4 µM)	relative viability (Silmitasertib + AZD7762; first compound 0.04 µM)	relative viability (Silmitasertib + AZD7762; first compound 0.4 µM)	relative viability (Silmitasertib + AZD7762; first compound 1.265 µM)	relative viability (Silmitasertib + AZD7762; first compound 4 µM)	relative viability ([3]; first compound 0.04 µM)	relative viability ([3]; first compound 0.4 µM)	relative viability ([3]; first compound 1.265 µM)	relative viability ([3]; first compound 4 µM)
201T	0.738	0.709	0.804	0.893	1.03	1.03	1.12	1.28	0.821	0.631	0.719	0.462	0.636	0.372	0.754	0.682	1.09	0.949	1.02	0.837
A-427	0.952	0.595	0.785	0.497	1.04	–	1.06	0.656	0.617	–	0.425	0.192	0.852	0.555	0.562	0.445	0.87	0.761	0.954	0.568
ABC-1	–	–	–	–	0.889	0.696	0.332	0.312	0.52	0.37	0.221	0.226	0.948	0.824	0.8	0.567	1.22	0.733	0.642	0.553
BEN	1.14	0.856	1.02	0.968	0.484	–	0.623	0.284	0.317	–	0.336	0.269	0.935	0.674	0.625	0.568	0.648	0.475	0.456	0.545
CAL-12T	0.444	0.3	0.394	0.284	0.363	0.531	0.278	0.125	0.839	0.542	0.29	0.23	0.656	0.7	0.805	0.77	0.891	0.876	0.746	0.525
COR-L23	0.737	0.369	0.497	0.456	0.716	0.66	0.646	0.678	0.786	0.496	0.828	0.419	–	–	–	–	0.62	0.378	0.525	0.401
COR-L 105	0.491	0.434	0.401	0.478	0.709	0.767	0.541	0.447	0.767	0.617	0.58	0.348	–	–	–	–	0.843	0.901	0.688	0.663
ChaGo-K-1	0.938	0.704	0.821	0.907	0.586	0.57	0.566	0.607	0.602	0.456	0.567	0.353	0.905	0.618	0.85	0.913	0.786	0.574	0.62	0.539
EKVX	0.385	–	0.269	0.47	0.986	0.605	0.718	0.884	0.812	0.533	0.605	0.662	0.834	–	0.682	0.642	0.951	0.464	0.541	0.584
EMC-BAC-2	0.977	0.845	0.684	0.698	1.22	1.13	0.876	0.39	0.395	0.348	0.276	0.249	1.22	1.04	1.08	0.662	0.595	0.455	0.287	0.169
EPLC-272H	0.319	–	0.214	0.279	1.05	–	0.18	0.181	0.301	–	0.24	0.178	0.232	–	0.275	0.217	0.454	0.685	0.391	0.13
H3255	0.651	0.604	0.527	0.565	0.893	0.849	1.02	0.504	0.73	0.591	0.545	0.613	1.09	0.808	0.807	0.77	0.747	0.772	0.868	0.645
HARA	0.97	0.594	0.419	0.487	0.738	0.724	0.396	0.646	0.715	0.203	0.432	0.141	0.411	0.289	0.589	0.443	0.627	0.301	0.464	0.416
HCC-15	0.407	0.343	0.275	0.286	0.368	0.204	0.281	0.207	0.761	0.552	0.437	0.24	1.19	0.884	1.15	0.875	1.02	0.699	0.579	0.671
HCC-44	1.15	0.906	1.02	1.07	1.14	1.07	1.05	1.09	0.524	0.606	0.508	0.29	0.978	1.04	1.08	0.978	1.06	0.903	1.24	1.16
HCC-78	0.794	0.615	0.537	0.656	–	–	–	–	0.437	0.346	0.369	0.335	0.783	0.469	0.405	0.475	0.459	0.421	0.402	0.437
HCC-366	0.354	0.337	0.318	0.255	–	–	–	–	0.896	0.489	0.7	0.0818	0.254	0.188	0.371	0.147	0.396	0.221	0.413	0.0566
HCC-827	0.604	–	0.406	0.422	0.616	–	0.524	0.355	0.872	–	0.702	0.736	0.234	–	0.214	0.205	0.861	–	0.241	0.555
HOP-62	0.408	–	0.388	0.549	0.954	–	1.04	0.969	0.897	–	0.905	0.497	0.554	–	0.663	0.385	0.779	–	0.584	0.388

Cell Line	relative viability ([1]; first compound 0.04 µM)	relative viability ([1]; first compound 0.4 µM)	relative viability ([1]; first compound 1.265 µM)	relative viability ([1]; first compound 4 µM)	relative viability ([2]; first compound 0.04 µM)	relative viability ([2]; first compound 0.4 µM)	relative viability ([2]; first compound 1.265 µM)	relative viability ([2]; first compound 4 µM)	relative viability (Silmitasertib + OSI-027; first compound 0.04 µM)	relative viability (Silmitasertib + OSI-027; first compound 0.4 µM)	relative viability (Silmitasertib + OSI-027; first compound 1.265 µM)	relative viability (Silmitasertib + OSI-027; first compound 4 µM)	relative viability (Silmitasertib + AZD7762; first compound 0.04 µM)	relative viability (Silmitasertib + AZD7762; first compound 0.4 µM)	relative viability (Silmitasertib + AZD7762; first compound 1.265 µM)	relative viability (Silmitasertib + AZD7762; first compound 4 µM)	relative viability ([3]; first compound 0.04 µM)	relative viability ([3]; first compound 0.4 µM)	relative viability ([3]; first compound 1.265 µM)	relative viability ([3]; first compound 4 µM)
IA-LM	–	–	–	–	–	–	–	–	–	–	–	–	–	–	–	–	1.05	–	1.21	0.538
LC-2-ad	0.987	0.813	0.892	0.772	1.22	1.03	1.21	1.09	0.982	0.709	0.721	0.483	0.95	0.811	0.797	0.494	0.712	0.573	0.753	0.3
LCLC-97TM1	0.217	–	0.156	0.145	0.892	–	0.691	0.442	0.545	–	0.339	0.198	0.418	–	0.191	0.128	0.605	–	0.654	0.119
LCLC-103H	0.689	0.71	0.648	0.636	0.909	0.707	0.751	0.548	0.519	0.4	0.438	0.384	0.839	0.803	0.759	0.588	0.823	0.693	0.774	0.428
LK-2	0.674	–	0.678	0.702	0.168	–	0.174	0.169	0.266	–	0.247	0.184	0.344	–	0.362	0.219	0.296	–	0.404	0.18
LOU-NH91	0.786	0.771	0.722	0.731	0.355	0.301	0.264	0.248	0.709	0.665	0.629	0.543	0.785	0.745	0.621	0.594	1.06	0.874	0.784	0.514
NCI-H520	0.832	0.668	0.524	0.626	0.242	0.232	0.242	0.289	0.197	0.239	0.252	0.252	–	–	–	–	0.773	0.907	0.912	0.802
NCI-H661	0.645	0.605	0.667	0.615	0.959	1.04	0.838	0.825	0.864	0.593	0.635	0.577	–	–	–	–	0.812	0.847	0.737	0.631
NCI-H1563	–	–	–	–	0.56	0.486	–	0.521	0.773	0.773	0.779	0.681	–	–	–	–	–	–	–	–
NCI-H1650	0.769	0.56	0.428	0.256	0.187	0.203	0.192	0.21	0.99	0.511	0.496	0.203	–	–	–	–	0.577	0.386	0.421	0.288
NCI-H1703	–	–	–	–	–	–	–	–	–	–	–	–	0.136	–	0.153	0.146	–	–	–	–
NCI-H1792	0.407	0.478	0.432	0.562	0.452	0.385	0.57	0.375	0.815	0.675	0.782	0.699	0.737	0.56	0.59	0.444	–	–	–	–
NCI-H2009	0.342	0.271	0.254	0.239	1.06	1.1	0.971	0.604	0.784	0.506	0.424	0.262	–	–	–	–	0.787	0.681	0.795	0.751
NCI-H2023	0.728	0.569	0.373	0.535	0.746	0.535	0.683	0.684	0.503	0.345	0.343	0.251	–	–	–	–	0.839	0.268	0.63	0.374
NCI-H2228	0.554	0.375	0.456	0.464	0.178	–	0.145	0.135	0.541	–	0.583	0.494	–	–	–	–	0.848	0.513	0.779	0.875
SK-LU-1	0.733	0.46	0.298	0.289	0.21	0.204	0.187	0.179	0.432	0.248	0.223	0.197	–	–	–	–	0.851	0.673	0.587	0.35
SK-MES-1	0.589	0.477	0.535	0.469	0.821	0.801	0.397	0.213	0.675	0.558	0.435	0.236	–	–	–	–	1.21	0.876	0.8	0.297
SW 1573	0.529	0.54	0.478	0.439	0.243	0.215	0.179	0.164	0.648	0.616	0.548	0.319	–	–	–	–	1.17	0.661	0.908	0.577
UMC-11	0.73	0.65	0.353	0.403	1.2	1.1	0.861	0.613	0.491	0.485	0.438	0.402	–	–	–	–	0.388	0.522	0.439	0.333
